Where two headings read alike, the source gives them in different places.
How the values were obtained:
[1] = molecular target: T1, human dopamine D3 receptor (Homo sapiens, UniProt P35462); test: Radioligand binding assay, human dopamine D3 receptors ([3H]Spiperone)
T1 construct: expressed in transfected cells; host or cells: CHO
Method: The assay for binding to human D3 receptors was conducted according to Sokoloff, P. et al. Nature 1990, 347, 146.
CHO cells stably transfected with a plasmid encoding the human dopamine D3 receptor were used to prepare membranes in modified Tris-HCl pH 7.4 buffer using standard techniques. […] Non-specific binding was estimated in the presence of 25 μM S-(−)-sulpiride. […] See Sokoloff, P. et al. “Molecular cloning and characterization of a novel dopamine receptor (D3) as a target for neuroleptics” Nature 347: 146–151, 1990.
(§1) The human 5-HT2a and 5-HT2b screens were conducted according to Bonhaus, D. W. et al. Br. J. Pharmacol. 1995, 115, 622. The human […], W. A. et al. J. Neurochem. 1997, 69, 1449. The human 5-HT6 screen was conducted according to Monsama, F. J. et al. Mol. Pharmacol. 1993, 43, 320. The assay to human D3 receptors was conducted according to Sokoloff, P. et al. Nature 1990, 347;146. The human dopamine transporter assay was conducted according to Gu, H. et. al. J. Biol. Chem. 1994, 269 (10);7124; and Giros, B. et al. Trends. Pharmacol. Sci. 1993, 14: 43. The human muscarinic M1–M4 screens were conducted according to Buckley N. J. et al. Mol. Pharmacol. 1989, 35:469.

[2] = molecular target: T2, human serotonin 5-HT6 receptor (Homo sapiens, UniProt P50406); test: Radioligand binding assay, human 5-HT6 receptors ([3H]LSD); conditions: read-out: IC50 (nM) 5-HT6
T2 construct: expressed in transfected cells; host or cells: HeLa/E6-7
T2 sequence (P50406 whole entry): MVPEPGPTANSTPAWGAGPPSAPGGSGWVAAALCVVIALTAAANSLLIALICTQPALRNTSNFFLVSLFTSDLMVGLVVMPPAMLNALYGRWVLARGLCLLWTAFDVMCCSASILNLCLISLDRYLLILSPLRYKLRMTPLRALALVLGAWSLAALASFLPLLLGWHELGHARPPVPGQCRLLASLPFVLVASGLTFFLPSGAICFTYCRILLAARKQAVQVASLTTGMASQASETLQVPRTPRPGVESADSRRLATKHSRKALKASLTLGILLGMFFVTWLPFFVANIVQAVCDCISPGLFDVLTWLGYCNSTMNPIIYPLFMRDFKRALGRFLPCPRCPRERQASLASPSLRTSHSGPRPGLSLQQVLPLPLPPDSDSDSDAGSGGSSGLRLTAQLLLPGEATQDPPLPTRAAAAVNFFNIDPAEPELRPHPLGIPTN
Method: (§2) The human 5-HT2a and 5-HT2b screens were conducted according to Bonhaus, D. W. et al. Br. J. Pharmacol. 1995, 115, 622. The human 5-HT2c screen was conducted according to Wolf, W. A. et al. J. Neurochem. 1997, 69, 1449. The human 5-HT6 screen was conducted according to Monsma, F. J. et al. Mol. Pharmacol. 1993, 43, 320.
This assay measures binding of [^3H]LSD (lysergic acid diethylamide) to human serotonin 5-HT6 receptors. HeLa/E6–7 cells stably transfected with a plasmid encoding the human serotonin 5-HT6 receptor were used to prepare membranes in modified Tris-HCl pH 7.4 buffer using standard techniques. A 30 μg aliquot of membrane was incubated with 1.5 nM [^3H]LSD for 120 minutes at 37° C. Non-specific binding was estimated in the presence of 5 μM 5-HT. Membranes were filtered and washed 3 times and the filters were counted to determine [^3H]LSD specifically bound. See Monsma, Jr., F. J. et al. “Cloning and expression of a novel serotonin receptor with high affinity for tricyclic psychotropic drugs” Mol. Pharmacol. 43: 320–327, 1993.
as §1

[3] = molecular target: T3, human serotonin 5-HT2A receptor (Homo sapiens, UniProt P28223); test: Radioligand binding assay, human 5-HT2A receptors ([3H]Ketanserin)
T3 construct: expressed in transfected cells; host or cells: CHO-K1
T3 sequence (P28223 whole entry): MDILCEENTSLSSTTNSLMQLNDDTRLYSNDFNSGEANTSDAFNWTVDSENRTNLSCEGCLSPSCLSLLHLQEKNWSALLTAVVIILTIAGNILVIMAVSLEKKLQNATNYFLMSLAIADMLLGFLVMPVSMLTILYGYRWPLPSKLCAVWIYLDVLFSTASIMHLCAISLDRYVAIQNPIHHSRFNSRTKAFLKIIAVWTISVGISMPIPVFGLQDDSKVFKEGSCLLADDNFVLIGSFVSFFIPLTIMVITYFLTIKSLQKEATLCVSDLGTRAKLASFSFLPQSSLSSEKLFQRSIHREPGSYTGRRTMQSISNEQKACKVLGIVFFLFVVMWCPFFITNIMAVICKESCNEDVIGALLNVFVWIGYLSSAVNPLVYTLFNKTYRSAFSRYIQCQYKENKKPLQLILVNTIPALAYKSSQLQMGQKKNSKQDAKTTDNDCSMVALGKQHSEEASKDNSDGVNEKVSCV
Method: as §2
CHO-K1 cells stably transfected with a plasmid encoding the human serotonin 5-HT2A receptor were used to prepare membranes in modified Tris-HCl pH 7.7 buffer using standard techniques. […] Non-specific binding was estimated in the presence of 1 μM mianserin. […] See Bonhaus, D. W. et al. “The pharmacology and distribution of human 5-hydroxytryptamine2B (5-HT2B) receptor gene products: comparison with 5-HT2A and 5-HT2C receptors” Brit. J. Pharmacol. 115: 622–628, 1995; and Saucier, C and Albert, P. R. “Identification of an endogenous 5-hydroxytryptamine2A receptor in NIH-3T3 cells: agonist-induced down-regulation involves decreases in receptor RNA and number” J. Neurochem. 68: 1998–2011, 1997.
as §1

[4] = molecular target: T4, human serotonin 5-HT2C receptor (Homo sapiens, UniProt P28335); test: Radioligand binding assay, human 5-HT2C receptors ([3H]Mesulergine)
T4 construct: expressed in transfected cells; host or cells: CHO-K1
T4 sequence (P28335 33-458): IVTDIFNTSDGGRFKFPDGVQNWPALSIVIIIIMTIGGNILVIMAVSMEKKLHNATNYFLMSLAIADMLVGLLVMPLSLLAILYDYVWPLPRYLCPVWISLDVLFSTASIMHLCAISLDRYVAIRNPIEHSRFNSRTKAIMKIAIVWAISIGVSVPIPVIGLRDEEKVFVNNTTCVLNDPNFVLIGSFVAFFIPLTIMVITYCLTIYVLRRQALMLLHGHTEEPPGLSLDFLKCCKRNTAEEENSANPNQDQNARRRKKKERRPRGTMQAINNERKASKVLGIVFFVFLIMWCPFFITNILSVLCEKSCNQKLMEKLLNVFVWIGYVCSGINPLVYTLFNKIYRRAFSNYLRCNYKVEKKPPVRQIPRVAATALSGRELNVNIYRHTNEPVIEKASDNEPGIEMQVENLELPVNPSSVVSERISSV
Method: as §2
CHO-K1 cells stably transfected with a plasmid encoding the human serotonin 5-HT2C receptor were used to prepare membranes in modified Tris-HCl pH 7.7 buffer using standard techniques. […] Non-specific binding was estimated in the presence of 1 μM mianserin. […] See Wolf, W. A. and Schutz, J. S. “The serotonin 5-HT2C receptor is a prominent serotonin receptor in basal ganglia: evidence from functional studies on serotonin-mediated phosphoinositide hydrolysis” J. Neurochem. 69: 1449–1458, 1997.
as §1

[5] = molecular target: T5, human serotonin 5-HT2B receptor (Homo sapiens, UniProt P41595); test: Radioligand binding assay, human 5-HT2B receptors ([3H]LSD); conditions: human 5-HT2b; Example 16 table; read-out: IC50 (nM) 5-HT2b
T5 construct: expressed in transfected cells; host or cells: CHO-K1
T5 sequence (P41595 whole entry): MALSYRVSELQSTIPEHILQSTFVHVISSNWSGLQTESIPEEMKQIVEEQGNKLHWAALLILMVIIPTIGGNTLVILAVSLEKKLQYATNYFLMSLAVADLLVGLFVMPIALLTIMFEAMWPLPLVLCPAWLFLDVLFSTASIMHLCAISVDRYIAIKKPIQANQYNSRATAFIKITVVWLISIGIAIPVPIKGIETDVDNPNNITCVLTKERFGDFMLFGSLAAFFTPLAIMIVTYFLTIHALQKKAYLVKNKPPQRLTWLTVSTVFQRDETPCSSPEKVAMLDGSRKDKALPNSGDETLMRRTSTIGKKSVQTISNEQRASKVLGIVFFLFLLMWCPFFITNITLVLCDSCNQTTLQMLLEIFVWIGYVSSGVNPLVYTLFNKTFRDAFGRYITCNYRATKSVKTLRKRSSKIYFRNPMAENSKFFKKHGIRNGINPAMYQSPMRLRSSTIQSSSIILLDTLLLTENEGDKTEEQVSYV
Method: This assay measures binding of [^3H]LSD to human serotonin 5-HT2B receptors. CHO-K1 cells stably transfected with a plasmid encoding the human serotonin 5-HT2B receptor were used to prepare membranes in modified Tris-HCl pH 7.4 buffer using standard techniques. […] Non-specific binding was estimated in the presence of 10 μM serotonin. Membranes were filtered and washed 3 times and the filters were counted to determine [^3H]LSD specifically bound. See Bonhaus, D. W. et al. “The pharmacology and distribution of human 5-hydroxytryptamine2B (5-HT2B) receptor gene products: comparison with 5-HT2A and 5-HT2C receptors” Brit.
The human 5-HT2b screen was conducted according to Wolf, W. A. et al. J. Neurochem.

[6] = human, Example 100 table, read-out: IC50 (nM) D3
[7] = human, Example 100 table, read-out: IC50 (nM) 5-HT2A
[8] = human, Example 100 table, read-out: IC50 (nM) 5-HT2C

T1 sequence (P35462 whole entry): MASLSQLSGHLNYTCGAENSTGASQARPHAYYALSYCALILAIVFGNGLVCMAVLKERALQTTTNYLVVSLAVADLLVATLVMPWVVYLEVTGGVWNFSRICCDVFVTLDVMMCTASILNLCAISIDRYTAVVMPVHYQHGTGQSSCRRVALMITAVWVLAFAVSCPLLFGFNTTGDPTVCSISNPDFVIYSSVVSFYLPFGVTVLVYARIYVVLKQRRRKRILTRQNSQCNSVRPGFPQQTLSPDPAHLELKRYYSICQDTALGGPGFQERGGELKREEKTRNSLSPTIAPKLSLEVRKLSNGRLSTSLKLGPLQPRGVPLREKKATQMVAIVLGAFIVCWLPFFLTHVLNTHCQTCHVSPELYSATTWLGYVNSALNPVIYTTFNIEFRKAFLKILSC

Row | IC50 [1, 6] [nM] | IC50 ([2]; human, Example 100 table) [nM] | Compound | IC50 [3, 7] [nM] | IC50 [4, 8] [nM] | also measured
1 | < 1000 | < 1000 | CCN1CCCC1CNc1nc(C2(c3ccccc3F)CCCCC2)cs1 (racemic) [Compound 131, (1-ethyl-pyrrolidin-2-ylmethyl)-{4-[1-(2-fluorophenyl)-cyclohexyl]-thiazol-2-yl}-amine] | – | – | –
2 | > 1000 | > 1000 | CN(C)C1CCN(c2nc(C3(c4ccccc4F)CCCCC3)cs2)C1 (racemic) [Compound 136, (1-{4-[1-(2-Fluoro-phenyl)-cyclohexyl]-thiazol-2-yl}-pyrrolidin-3-yl)-dimethylamine] | – | – | –
3 | < 1000 | < 1000 | CN1CCCC1CCNc1nc(C2(c3ccccc3F)CCCCC2)cs1 (single isomer, unassigned) [Compound 129, {4-[1-(2-fluorophenyl)-cyclohexyl]-thiazol-2-yl}-[2-(1-methyl-pyrrolidin-2-yl)-ethyl]-amine] | < 1000 | < 1000 | –
4 | – | – | Clc1ccc(C2(c3csc(NCCCN4CCOCC4)n3)CCC2)cc1 [Compound 21, {4-[1-(4-chlorophenyl)-cyclobutyl]thiazol-2-yl}-(3-morpholin-4-yl-propyl)amine] | – | – | IC50 [5]: < 1000 nM; IC50 ([1]; Example 20 table, read-out: IC50 (nM) Against Human D3 Receptors): > 1000 nM; IC50 ([3]; human 5-HT2a, Example 16 table, read-out: IC50 (nM) 5-HT2a): > 1000 nM; IC50 ([2]; human 5-HT6, Example 16 table): > 1000 nM; IC50 ([4]; human 5-HT2c, Example 16 table, read-out: IC50 (nM) 5-HT2c): < 1000 nM
5 | < 1000 | < 1000 | CN1CCCC1CCNc1nc(C2(c3ccc(Cl)cc3)CCCCC2)cs1 (stereo not drawn) [Compound 95, {4-[1-(4-chloro-phenyl)-cyclohexyl]-thiazol-2-yl}-[2-(1-methyl-pyrrolidin-2-yl)-ethyl] amine] | < 1000 | < 1000 | –
6 | > 1000 | > 1000 | CCN(CC)CCCNc1nc(C2(c3cccc(Cl)c3)CCOCC2)cs1 [Compound 98, N-{4-[4-(3-chloro-phenyl)-tetrahydro-pyran-4yl]-thiazol-2-yl}-N,N-diethyl-propane-1,3-diamine] | – | – | –
7 | < 1000 | < 1000 | Clc1ccc(C2(c3csc(NCCN4CCCCC4)n3)CCCC2)cc1 [Compound 101] | – | – | –
8 | > 1000 | < 1000 | Clc1ccc(C2(c3csc(NCCN4CCOCC4)n3)CCCCC2)cc1 [Compound 102] | – | – | –
9 | < 1000 | < 1000 | CCN(CC)CCCNc1nc(C2(c3ccc(Cl)cc3)CCCCC2)cs1 [Compound 103] | < 1000 | < 1000 | –
10 | < 100 | < 1000 | CN1CCCN(c2nc(C3(c4ccc(Cl)cc4)CCCC3)cs2)CC1 [Compound 105] | < 1000 | < 1000 | –
11 | < 1000 | > 1000 | Clc1ccc(C2(c3csc(N4CCC(N5CCCCC5)CC4)n3)CCCCC2)cc1 [Compound 107] | – | – | –
12 | < 1000 | < 100 | CN1CCC(N(C)c2nc(C3(c4ccc(Cl)cc4)CCCCC3)cs2)C1 (stereo not drawn) [Compound 108] | – | – | –
13 | < 1000 | < 100 | Clc1ccc(C2(c3csc(N4CCNCC4)n3)CCCC2)cc1 [Compound 109] | – | – | –
14 | > 1000 | > 1000 | Fc1ccccc1C1(c2csc(N3CCN(Cc4ccc(Cl)cc4)CC3)n2)CCCC1 [Compound 110] | – | – | –
15 | > 1000 | > 1000 | CCN(CC)CCCNc1nc(C2(c3ccccc3F)CCCC2)cs1 [Compound 114] | – | – | –
16 | < 1000 | < 1000 | CN1CCCN(c2nc(C3(c4ccc(Cl)cc4)CCCCC3)cs2)CC1 [Compound 115] | – | – | –
17 | > 1000 | > 1000 | CN(C)C1CCN(c2nc(C3(c4ccc(Cl)cc4)CCCCC3)cs2)C1 (stereo not drawn) [Compound 117] | – | – | –
18 | > 1000 | < 1000 | CN(C)C1CCN(c2nc(C3(c4ccc(Cl)cc4)CCCC3)cs2)C1 (stereo not drawn) [Compound 118] | – | – | –
19 | > 1000 | > 1000 | Clc1ccc(C2(c3csc(NC4CCN(Cc5ccccc5)C4)n3)CCCCC2)cc1 (stereo not drawn) [Compound 119] | – | – | –
20 | < 1000 | < 100 | Fc1ccccc1C1(c2csc(N3CCNCC3)n2)CCCCC1 [Compound 127, 1-{4-[1-(2-Fluorophenyl)-cyclohexyl]-thiazol-2-yl}-piperazine] | – | – | –

Row | Compound | IC50 [1, 6] [nM] | IC50 ([2]; human, Example 100 table) [nM] | IC50 [3, 7] [nM] | IC50 [4, 8] [nM] | also measured
21 | Clc1ccc(C2(c3csc(NCCCN4CCOCC4)n3)CCCCC2)cc1 [Compound 94, {4-[1-(4-chloro-phenyl)-cyclohexyl]-thiazol-2-yl}-(3-morpholin-4-yl-propyl)-amine] | > 1000 | < 1000 | > 1000 | < 1000 | –
22 | Fc1ccccc1C1(c2csc(NCCCN3CCOCC3)n2)CCCC1 [Compound 96] | > 1000 | > 1000 | > 1000 | > 1000 | –
23 | COc1ccccc1N1CCN(c2nc(C3(c4ccccc4F)CCCCC3)cs2)CC1 [Compound 97] | > 1000 | > 1000 | > 1000 | > 1000 | –
24 | Clc1ccc(C2(c3csc(NCCCN4CCOCC4)n3)CCCC2)cc1 [Compound 100] | > 1000 | < 1000 | > 1000 | < 1000 | –
25 | CNC1CCN(c2nc(C3(c4ccc(Cl)cc4)CCCCC3)cs2)C1 (stereo not drawn) [Compound 106] | > 1000 | > 1000 | > 1000 | > 1000 | –
26 | Clc1ccc(C2(c3csc(N4CCOCC4)n3)CCOCC2)cc1 [Compound 124, 4-{4-[4-(4-Chloro-phenyl)-tetrahydro-pyran-4-yl]-thiazol-2-yl}-morpholine] | > 1000 | > 1000 | > 1000 | > 1000 | –
